In ChEMBL document CHEMBL3243996, “[1-Deaminopenicillamine,4-threonine]oxytocin, a potent inhibitor of oxytocin” (J Med Chem, 1978):
Activity calls are given as the source filed them. No cut-off for these calls is given here. Starred links: 1 amine or outer side, 2 acyl side, 3 side chain; linkers in the order of their positions; H or OH if unused. Positions of bridges follow the written chain, without caps; N, C: chain ends. Residues, ends and D or L forms follow the SMILES beside them. X2 = O=C(CC1(S[*:2])CCCCC1)[*:1]; X1 = CC(C)(CC(=O)[*:1])S[*:2]

Tests used:
Oxytocin receptor [1] = target: T1, Oxytocin receptor (Rattus norvegicus, UniProt P70536); assay: (§1) Antagonist activity at oxytocin receptor in rat uterus by Schild's method in absence of Mg2+; format: tissue-based; details: read-out: pA2 (converted)
T1 sequence (P70536 whole entry): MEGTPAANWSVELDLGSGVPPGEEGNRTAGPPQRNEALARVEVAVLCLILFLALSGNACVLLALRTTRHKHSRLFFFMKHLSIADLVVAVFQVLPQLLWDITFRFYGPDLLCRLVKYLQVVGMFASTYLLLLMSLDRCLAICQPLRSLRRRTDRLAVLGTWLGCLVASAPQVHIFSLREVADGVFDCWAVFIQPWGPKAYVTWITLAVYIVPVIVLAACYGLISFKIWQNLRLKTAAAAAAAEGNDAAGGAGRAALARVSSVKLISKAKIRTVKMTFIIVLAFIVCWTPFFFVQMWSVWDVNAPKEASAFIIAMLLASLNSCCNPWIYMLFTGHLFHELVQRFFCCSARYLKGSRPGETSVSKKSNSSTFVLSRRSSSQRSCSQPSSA

[2] = (§2) Antagonist activity at rat vasopressin receptor
Oxytocin receptor [3] = target: T1, Oxytocin receptor; assay: (§3) Antagonist activity at oxytocin receptor in rat uterus by average effective molar concentration based analysis; format: tissue-based; details: read-out: pA2 (converted)
[4] = target: T2, Oxytocin receptor (Rattus norvegicus) (UniProt P70536); assay: as §1; format: tissue-based
T2 sequence (whole entry): T1 sequence (P70536 whole entry)

[5] = target: T2, Oxytocin receptor (Rattus norvegicus); assay: as §3; format: tissue-based
Rattus norvegicus [6] = organism: Rattus norvegicus; assay: Agonist activity at rat vasopressin receptor
[7] = target: T2, Oxytocin receptor (Rattus norvegicus); assay: Agonist activity at oxytocin receptor in rat uterus; format: tissue-based
Rattus norvegicus [8] = organism: Rattus norvegicus; assay: as §2

Kb (Oxytocin receptor [1]) [nM]	Kb (Oxytocin receptor [3]) [nM]	A2 [4] [×10⁻⁸ M]	SMILES	also measured
	138		CC[C@H](C)[C@@H]1NC(=O)[C@H](Cc2ccc(O)cc2)NC(=O)[C@@H](N)C(C)(C)SSC[C@@H](C(=O)N2CCC[C@H]2C(=O)N[C@@H](CC(C)C)C(=O)NCC(N)=O)NC(=O)[C@H](CC(N)=O)NC(=O)[C@H](CCC(N)=O)NC1=O	
72.4	115	9.1	CC[C@H](C)[C@@H]1NC(=O)[C@H](Cc2ccc(O)cc2)NC(=O)CC(C)(C)SSC[C@@H](C(=O)N2CCC[C@H]2C(=O)N[C@@H](CC(C)C)C(=O)NCC(N)=O)NC(=O)[C@H](CC(N)=O)NC(=O)[C@H](CCC(N)=O)NC1=O (YIQNCPLG-NH2; linker N-5 via X1)	A2 [5]: 11.6 ×10⁻⁸ M; pA2 [2]: 6.27
		4	CC[C@H](C)[C@@H]1NC(=O)[C@H](Cc2ccc(O)cc2)NC(=O)CC(C)(C)SSC[C@@H](C(=O)N2CCC[C@H]2C(=O)N[C@@H](CC(C)C)C(=O)NCC(N)=O)NC(=O)[C@H](CC(N)=O)NC(=O)[C@H]([C@@H](C)O)NC1=O (stereo in doubt; 1a) [listing 2 of 2 here]	Activity (Rattus norvegicus [6]): inactive; Activity [7]: inactive
		4.3	CC[C@H](C)[C@@H]1NC(=O)[C@H](Cc2ccc(O)cc2)NC(=O)CC(C)(C)SSC[C@@H](C(=O)N2CCC[C@H]2C(=O)N[C@@H](CC(C)C)C(=O)NCC(N)=O)NC(=O)[C@H](CC(N)=O)NC(=O)[C@H]([C@@H](C)O)NC1=O (stereo in doubt; 1b) [listing 2 of 2 here]	

The next lines start with the molecule.

SMILES	Kb (Oxytocin receptor [1]) [nM]	Kb (Oxytocin receptor [3]) [nM]	A2 [4] [×10⁻⁸ M]	also measured
CC[C@H](C)[C@@H]1NC(=O)[C@H](Cc2ccc(O)cc2)NC(=O)CC(C)(C)SSC[C@@H](C(=O)N2CCC[C@H]2C(=O)N[C@@H](CC(C)C)C(=O)NCC(N)=O)NC(=O)[C@H](CC(N)=O)NC(=O)[C@H]([C@@H](C)O)NC1=O (stereo in doubt; 1a) [listing 1 of 2 here]	34.7			pA2 [2]: 6.67
CC[C@H](C)[C@@H]1NC(=O)[C@H](Cc2ccc(O)cc2)NC(=O)CC(C)(C)SSC[C@@H](C(=O)N2CCC[C@H]2C(=O)N[C@@H](CC(C)C)C(=O)NCC(N)=O)NC(=O)[C@H](CC(N)=O)NC(=O)[C@H]([C@@H](C)O)NC1=O (stereo in doubt; 1b) [listing 1 of 2 here]	25.7			
CC[C@H](C)[C@@H]1NC(=O)[C@H](Cc2ccc(O)cc2)NC(=O)CC2(CCCCC2)SSC[C@@H](C(=O)N2CCC[C@H]2C(=O)N[C@@H](CC(C)C)C(=O)NCC(N)=O)NC(=O)[C@H](CC(N)=O)NC(=O)[C@H](CCC(N)=O)NC1=O (YIQNCPLG-NH2; linker N-5 via X2)	37.2	37.2		A2 [5]: 3.7 ×10⁻⁸ M; Activity (Rattus norvegicus [8]): Active
